# Like-named read-outs stand apart in the source and are kept apart here. No end group written: not given here.
# Columns and labels:
# [1] = test system: thoracodorsal arteries (TDA); conditions: for EC50: read-out: EC50 of agonist for TDA constriction
# [2] = test system: thoracodorsal arteries (TDA); assay: ATP release from intact TDA (luciferin:luciferase); format: cell-based, mouse; conditions: for ATP release from intact TDAs in response to agonist: five minutes of agonist, ARL67156 300 μmol/L
# Method: Mouse TDAs of equal length were isolated and washed thoroughly to eliminate red blood cells. Vessels were placed in a well of a 96-well plate containing Krebs-HEPES solution supplemented with 1% BSA at 37° C. for 30 minutes to allow for degradation of any ATP released as a result of mechanical stimulation during manipulation of the vessel. For measurements performed on HEK cells: 24 hours after transfection, cells cultured in 24-well plates were cautiously washed twice with warm Krebs-HEPES-BSA and 300 μl of Krebs-HEPES-BSA was added to each well after the last wash as previously described. The plate was then kept in the incubator at 37° C. with 5% CO2 for 30 minutes to allow for degradation of ATP eventually released during the washes.
# The ectonucleotidase inhibitor ARL67156 (300 μmol/L) was applied to each well. When indicated, ^10Panx1 (300 μmol/L) or the peptides analog to intracellular regions of Panx1 (3 μmol/L) were added along with the ARL67156. After a 30 minute incubation at 37° C. with the inhibitor(s), phenylephrine (100 μmol/L) or equivalent volume of Krebs-HEPES-BSA was added and the plate was kept at 37° C. After five minutes of phenylephrine stimulation, the media surrounding the TDA or the cells was transferred to an Eppendorf tube and centrifuged for five minutes at 5,000×g to eliminate eventual cell debris. Fifty microliters of the supernatant was transferred to a white-wall 96 well plate and placed in a FluoStar Omega luminometer. The ATP concentration was measured by adding 50 μL of luciferin:luciferase reagent (ATP bioluminescence assay kit HSII; Roche), which was injected into each well and the luminescence was immediately recorded. Data are expressed as a percent increase in ATP concentration compared to unstimulated condition. Each stimulated condition was compared to unstimulated condition performed on the same day, and all experiments were performed on at least 15 wells of HEK cells or three TDAs. Data were analyzed using a Kruskall Wallis test (non-parametric one-way ANOVA) followed by Dunn's post-hoc test.
# To determine if the TDA response involved release of ATP, we dissected TDAs from C57Bl/6 mice and measured the accumulation of extracellular ATP in response to various agonists in the medium (FIG. 1E, inset). The TDAs were placed in a well of a 96 well plate in Krebs-HEPES solution and treated with the ectonucleotidase inhibitor ARL67156 for 30 minutes. Next, arteries were treated with a contractile agonist for five minutes and the amount of ATP in the media surrounding the vessel was determined using the ATP bioluminescence assay kit HSII (Roche).
# [3] = test system: thoracodorsal arteries (TDA); assay: tissue or blood; conditions: Mus musculus
# [4] = test system: thoracodorsal arteries (TDA); assay: Pressure myography: agonist-induced constriction of pressurized TDAs from C57Bl/6 mice with pannexin inhibitors or Panx1 mimetic peptides; format: cell-based, mouse; conditions: for effect on phenylephrine-induced constriction of pressurized TDAs: TAT-linked peptides, C57Bl/6 TDAs
# Method: The contractile responses of pressurized thoracodorsal arteries (TDA) were measured as previously described. Briefly, TDA were isolated and placed in cold Krebs-HEPES until cannulation in a pressure arteriograph (Danish MyoTechnology). After a 30 minute equilibration period, cumulative concentrations of contractile agonists were applied to the TDA pressurized at 80 mmHg, and the vessel was visualized with an Olympus IX-71 microscope attached to a Hamamatsu EM-CCD camera coupled to Slidebook imaging software. […] Lastly, maximal diameter was measured at the end of each experiment in calcium-free Krebs-HEPES supplemented with EGTA (1 mmol/L) and sodium nitroprusside (10 μmol/L). In cases where the vessels were not constricting to the contractile agonist, their viability was assessed by applying 40 mM KCl and only TDA reaching 30% of the maximal diameter were considered for analysis. The contractile responses, as well as the basal tone, are expressed as a percentage of the maximal diameter.
# Using pressure arteriography on TDA dissected from C57Bl/6 mice (as described; and aortic ring contraction, as described), we measured the effect of pannexin inhibitors, probenecid and 10Panx1, on the contractile response upon stimulation with different vasoconstrictors: phenylephrine (FIG. 1A), noradrenaline (also called norepinephrine) (FIG. 1B), serotonin (also known as 5-HT) (FIG. 1C) and endothelin-1 (FIG. 1D). […] In contrast, ^10Panx1 and probenecid had no effect on contraction of TDA measured in response to cumulative concentrations of serotonin or endothelin-1 (FIGS. 1C-D; Table 1).
# To determine the region of Panx1 necessary for channel activation in response to α1AR stimulation, we produced short peptides derived from the intracellular regions of the Panx1 channel. We generated two peptides mimicking unique mouse Panx1 (mPanx1) sequences in the first intracellular loop (IL1 and IL2) and two peptides mimicking unique mPanx1 sequences in the C-terminal region, one in second intracellular loop (CT1) and one in the C-terminal tail (CT2) (FIG. 4A scissors indicate caspase 3 cleavage site; Table 3). All peptides also contained a TAT sequence to facilitate entry into cells and we verified the intracellular localization of each peptide by immunofluorescence detection of the TAT sequence in TDAs pre-incubated with each peptide (FIG. 7A). We tested the effect of each peptide on phenylephrine-induced contractile responses in pressurized TDAs from C57Bl/6 mice (FIGS. 4B-E). […] Note that these differences in effects of phenylephrine were similar in magnitude to those observed in arteries from SMC-specific Panx1-knockout mice and littermate controls (FIG. 2C, Table 2).
# [5] = TDAs from Cre^+/Panx1^FL mice, tamoxifen-injected (SMC Panx1 knockout)
# [6] = TDAs from Cre^+/Panx1^WT mice, tamoxifen-injected
# [7] = TDAs from Cre^−/Panx1^FL mice, tamoxifen-injected
# [8] = TDAs from Cre^−/Panx1^WT mice, tamoxifen-injected
# [9] = read-out: EC50 of agonist for TDA constriction, TDAs from Cre^+/Panx1^FL mice, tamoxifen-injected (SMC Panx1 knockout)
# [10] = read-out: EC50 of agonist for TDA constriction, TDAs from Cre^+/Panx1^WT mice, tamoxifen-injected
# [11] = read-out: EC50 of agonist for TDA constriction, TDAs from Cre^−/Panx1^FL mice, tamoxifen-injected
# [12] = read-out: EC50 of agonist for TDA constriction, TDAs from Cre^−/Panx1^WT mice, tamoxifen-injected
# [13] = in presence of ^10Panx1 (300 μmol/L) or probenecid (2 mmol/L)
# [14] = pannexin inhibitors, ^10Panx1 300 μmol/L, probenecid 2 mmol/L
# [15] = in presence of the named peptide
compound,measurement,setting,value
"CC[C@H](C)[C@H](NC(=O)[C@H](CC(=O)O)NC(=O)[C@H](CC(C)C)NC(=O)[C@H](Cc1c[nH]cn1)NC(=O)[C@@H]1CSSC[C@H](N)C(=O)N[C@@H](CO)C(=O)N[C@H]2CSSC[C@H](NC(=O)[C@H](CCC(=O)O)NC(=O)[C@H](CCCCN)NC(=O)[C@H](CC(=O)O)NC(=O)[C@H](CCSC)NC(=O)[C@H](CC(C)C)NC(=O)[C@H](CO)NC(=O)[C@H](CO)NC2=O)C(=O)N[C@@H](C(C)C)C(=O)N[C@@H](Cc2ccc(O)cc2)C(=O)N[C@@H](Cc2ccccc2)C(=O)N1)C(=O)N[C@H](C(=O)N[C@@H](Cc1c[nH]c2ccccc12)C(=O)O)[C@@H](C)CC [Endothelin-1, endothelin-1]",EMAX of agonist for TDA constriction,[1]; [5],38.9 ± 6.90 percentage of maximal diameter
same,EMAX of agonist for TDA constriction,[1]; [6],42.5 ± 4.82 percentage of maximal diameter
same,EMAX of agonist for TDA constriction,[1]; [7],42.2 ± 6.50 percentage of maximal diameter
same,EMAX of agonist for TDA constriction,[1]; [8],41.8 ± 4.95 percentage of maximal diameter
same,EC50,[1]; [5],30.1 ± 14.6 nM
same,EC50,[1]; [6],5.64 ± 2.94 nM
same,EC50,[1]; [7],3.77 ± 0.56 nM
same,EC50,[1]; [8],18.4 ± 10.9 nM
same,ATP release from intact TDAs in response to agonist,[2],neither serotonin nor endothelin-1 promoted ATP release
"NC[C@H](O)c1ccc(O)c(O)c1 [Noradrenaline, noradrenaline]",EMAX of agonist for TDA constriction,[1]; [5],56.4 ± 5.61 percentage of maximal diameter
same,EMAX of agonist for TDA constriction,[1]; [6],48.2 ± 1.82 percentage of maximal diameter
same,EMAX of agonist for TDA constriction,[1]; [7],45.6 ± 5.40 percentage of maximal diameter
same,EMAX of agonist for TDA constriction,[1]; [8],41.4 ± 5.10 percentage of maximal diameter
same,EC50,[3]; [9],50500 ± 24800 nM
same,EC50,[3]; [10],6780 ± 3200 nM
same,EC50,[3]; [11],10300 ± 1300 nM
same,EC50,[3]; [12],6280 ± 1450 nM
CCCN(CCC)S(=O)(=O)c1ccc(C(=O)O)cc1 [Probenecid],EMAX of endothelin-1 for TDA constriction,[4]; [13],34.6 ± 4.50 percentage of maximal diameter
same,EMAX of noradrenaline for TDA constriction,[4]; [13],74.9 ± 3.04 percentage of maximal diameter
same,EMAX of phenylephrine for TDA constriction,[4]; [13],72.6 ± 3.51 percentage of maximal diameter
same,EMAX of serotonin for TDA constriction,[4]; [13],39.5 ± 3.29 percentage of maximal diameter
same,effect on contraction of TDA in response to cumulative concentrations of serotonin or endothelin-1,[4]; [14],had no effect
same,effect on phenylephrine- and noradrenaline-mediated contraction of TDA,[4]; [14],significantly inhibited
NCCc1c[nH]c2ccc(O)cc12 [Serotonin],EMAX of agonist for TDA constriction,[1]; [5],38.2 ± 5.60 percentage of maximal diameter
same,EMAX of agonist for TDA constriction,[1]; [6],40.1 ± 4.59 percentage of maximal diameter
same,EMAX of agonist for TDA constriction,[1]; [7],30.4 ± 1.78 percentage of maximal diameter
same,EMAX of agonist for TDA constriction,[1]; [8],36.1 ± 2.68 percentage of maximal diameter
same,ATP release from intact TDAs in response to agonist,[2],neither serotonin nor endothelin-1 promoted ATP release
same,EC50,[3]; [9],14.2 ± 5.53 nM
same,EC50,[3]; [10],40.7 ± 12.2 nM
same,EC50,[3]; [11],65.2 ± 40.9 nM
same,EC50,[3]; [12],23.8 ± 5.07 nM
YGRKKQRRR [TAT],effect on phenylephrine-induced ATP release from intact TDAs,"[2]; phenylephrine 100 μmol/L, ^10Panx1 300 μmol/L, peptides 3 μmol/L",no effect
same,effect on phenylephrine-induced constriction of pressurized TDAs,[4],no significant effect
same,EMAX of phenylephrine for TDA constriction,[4]; [15],32.0 ± 6.21 percentage of maximal diameter
"mPanx1 178-VGQSLWEISE-187 (SEQ ID NO: 4) linked with a TAT sequence (YGRKKQRRR) (also: linked with TAT sequence (YGRKKQRRR), end not given here; UniProt Q9JIP4 178-187, looked up, fragment) [IL1]",effect on phenylephrine-induced constriction of pressurized TDAs,[4],did not affect
same,EMAX of phenylephrine for TDA constriction,[4]; [15],32.3 ± 3.81 percentage of maximal diameter
"mPanx1 381-IPTSLQTKGE-390 (SEQ ID NO: 6) linked with a TAT sequence (YGRKKQRRR) (also: linked with TAT sequence (YGRKKQRRR), end not given here; UniProt Q9JIP4 381-390, looked up, fragment) [CT2]",effect on phenylephrine-induced constriction of pressurized TDAs,[4],did not affect
same,EMAX of phenylephrine for TDA constriction,[4]; [15],52.3 ± 4.86 percentage of maximal diameter

# — patent publication US10314883B2, “Compositions and methods for regulating blood pressure” (University of Virginia Patent Foundation, priority 2015, dated 2019)
